Broadly, the Kd is the constant that tells how readily two partners part at equilibrium.

Experimental findings from patent US20240336617A1, “Substituted Bimane Compounds and Methods of Use Thereof” (THE TRUSTEES OF THE UNIVERSITY OF PENNSYLVANIA, priority 2023, published 2024) are described below.

Data set [1] is described as follows: Fluorescent quantum yield (QY) measurements. To be noted: for Fluorescence QY: ACN/PBS buffer (1:1 v/v); for Fluorescence quantum yield / QY: in ACN. The data set is classed as physicochemical. In a few lines:
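Fluorescence quantum yield was measured for each dye by first recording the incident excitation light spectrum with 1 mL of solvent. JASCO Quantum Yield Software then computed QY as the dye's fluorescence intensity divided by the drop in incident light intensity between dye-absent and dye-present samples. A full incident excitation spectrum with this setup needs an excitation wavelength of at least 360 nm.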

The nature of data set [2]: Fluorescent quantum yield (QY) measurements. The settings on record: absence of αS PFFs (−); 100 μM dye. The class given is physicochemical.
The target in data set [3] is T1, αS fibrils (Homo sapiens, UniProt P37840).
T1 construct: intein-His6 (C, cleaved yes); made in house; host or cells: Escherichia coli BL21
Nature of the data set: Fluorescent QY measurements with αS fibrils. The class given is physicochemical. The settings on record: for increase in QY with αS fibrils: presence versus absence of αS fibrils; for Relative Brightness: ratio of ε•QY in the presence and absence of PFFs; for increase in brightness in the presence of PFFs: αS PFFs. As to the method:
For each QY measurement, the incident excitation light spectrum was collected with 100 μL of probes (100 μM) in PBS buffer. After measuring the incident light intensity, probes (7j-7m) were added to the αS fibrils (100 μM) from a concentrated stock solution (10 mM in DMSO) to a final concentration of 100 μM and the new spectrum (fluorescence intensity and new incident light intensity) was collected. Using the JASCO Quantum Yield Software, the dye QY was calculated by dividing the dye fluorescence intensity by the difference in incident light intensity in the presence and absence of fibrils.
For each QY measurement, the incident excitation light spectrum was collected with […] of probes (100 μM) in PBS buffer. After measuring the incident light intensity, probes (5j and 5k) were added to the αS fibrils (100 μM) from a concentrated stock solution (10 mM in DMSO) to a final concentration of 100 μM and the new spectrum (fluorescence intensity and new incident light intensity) was collected. Using the JASCO Quantum Yield Software, the dye QY was calculated by dividing the dye fluorescence intensity by the difference in incident light intensity in the presence and absence of fibrils.

Data set [4] addresses T1, αS fibrils. Nature of the data set: Probe binding (Kd) measurements with αS fibrils. The settings on record: 100 μM αS PFFs; probe 10 nM-10 μM. Here is the method:
(§1) αS fibrils (100 μM) in PBS buffer were incubated with varying 7k, 7l, and 7m concentrations (0, 0.01, 0.1, 0.5, 1, 3, 5, 7, and 10 μM) from concentrated 10 mM DMSO stock solutions in Greiner 96 well flat black […] plates at 37° C. with shaking at 500 rpm for 15 min in an IKA MS3 control orbital shaker (Wilmington, NC, USA). After 15 min incubation, fluorescence intensity measurements were obtained with a Tecan Spark plate reader (Mannedorf, Switzerland) by excitation with λex/λem=424/570 nm for 7k, λex/λem=463/580 nm for 7l, and λex/λem=484/620 nm for 7m, using the following parameters: excitation and emission bandwidth 5 nm, delay time 0 μs, integration time 40 μs. Averages and standard deviations were calculated from at least 3 independent measurements at each probe concentration. The resulting binding curve was fit to the following equation (modified from the One site—Total, accounting for ligand depletion model) in Graphpad Prism 9 (San Diego, CA, USA), from which the Kd was determined.
Fluorescence Spectra with αS Fibrils
as §1, with “5k” for “7k, 7l, and 7m”, “with” for “with λex/λem=424/570 nm for 7k,”, “5k,” for “7l, and λex/λem=484/620 nm for 7m,”

In another data set the target is T2, αS monomer (Homo sapiens, UniProt P37840).
T2 construct: intein-His6 (C, cleaved yes); made in house; host or cells: Escherichia coli BL21
The data set can be described thus: Fluorescence with αS monomer (with and without TMAO). The class given is binding. The settings on record: for λmax (λem): 10 μM probe, αS monomer 50 μM, excitation 418 nm; for fluorescence turn on with αS monomer: varied probe or protein concentration. As to the method: A 1 mM stock solution of 5k in DMSO and a 6.5 M stock solution of trimethylamine N-oxide (TMAO) in Tris buffer at pH 7.4 were prepared. From these stocks, the fluorescence measurements of probe 5k (10 μM) were carried out with and without αS monomer (50 μM) at different concentrations of TMAO (2 M, 4 M and 6 M) diluted with the Tris buffer. The solutions were mixed and then the spectra were measured using a Photon Technology International (PTI) QuantaMaste 40 fluorescence spectrometer with excitation at 418 nm.

For data set [5], the system named is αS fibrils versus tau fibrils. The data set can be described thus: Amyloid selectivity by plate reader, αS versus tau fibrils. More on the design: fluorescence turn-on with αS relative to tau: dose or concentration left out as unconfirmed. The data set is classed as binding. The settings on record: for fluorescence turn on with αS relative to tau: 5 μM fibril concentrations, probe 1 μM. Here is the method:
Experiments were performed on the Tecan Spark in Greiner 96 well flat black ½ area plates using the following parameters: excitation and emission band widths 5 nm, lag time 0 μs, integration time 40 μs. A 10 mM DMSO stock solution of probes (7j-7m) and 100 μM stock of αS fibrils were used in the study described herein.

In data set [6] the target is T1, αS fibrils. Nature of the data set: Fractionation (total, supernatant, pellet) of αS fibrils with probe. The settings on record: T, S, P fractions. The class given is binding.
The mark [7] stands for this setting: presence of αS PFFs (+), 100 μM dye and PFFs.
Where [8] appears, read: presence of αS PFFs, 100 μM dye and PFFs.
Setting [9] is: λex/λem = 435/575 nm for 5j and 463/580 nm for 5k.

With `Cc1c(C)n2c(/C=C/c3ccc(N)cc3)c(C)c(=O)n2c1=O` [Compound 7j, (E)-3-(4-aminostyryl)-2,5,6-trimethyl-1H,7H-pyrazolo[1,2-a]pyrazole-1,7-dione], the “Fluorescence QY” value in data set [1] was 0.7%; in data set [2] it was 0.17%; at αS fibrils [3] (absence of αS PFFs, 100 μM dye), 0.17%; at αS fibrils [3] (setting [7]), 20.7%; at αS fibrils [3] (setting [8]), 20.7%. Also, the Fluorescence quantum yield in data set [1] and in data set [1] (Table S12) was 1.5% throughout. In addition, in data set [1], the QY was 2%. Further, at αS fibrils [3], the “increase in QY with αS fibrils” value is reported as 122 fold. The “Relative Brightness” value at αS fibrils [3] and on αS fibrils [3] (setting [9]) was 364 each time. For the same compound, the “increase in brightness in the presence of PFFs” value at αS fibrils [3] is on record as 364 fold.
Consider `Cc1c(C)n2c(/C=C/c3ccc(N(C)C)cc3)c(C)c(=O)n2c1=O` [Compound 7l, (E)-3-(4-(dimethylamino)styryl)-2,5,6-trimethyl-1H,7H-pyrazolo[1,2-a]pyrazole-1,7-dione], for which the “Fluorescence QY” value in data set [1] came to 0.5%; in data set [2], 0.15%; on αS fibrils [3] (absence of αS PFFs, 100 μM dye), 0.15%; at αS fibrils [3] (setting [7]), 32.7%; at αS fibrils [3] (setting [8]) it was 32.7%. The Fluorescence quantum yield in data set [1] and in data set [1] (Table S12) was 7.5% throughout. Moreover, the QY entry in data set [1] is on record as “about 7%”; in data set [1] (listed as 5k), 7.5%. On αS fibrils [4], this compound came in with a Kd of 1450 ± 430 nM. The “λmax (λem)” value on αS monomer (2 M TMAO) was determined as 567 nm; on αS monomer (4 M TMAO), 566 nm; on αS monomer (6 M TMAO) it was 560 nm. The “fluorescence turn on with αS monomer” value on αS monomer is listed as “occurs only with αS fibrils, not monomers”. Further, the “fluorescence turn-on with αS relative to tau” value in data set [5] is given as 2.8 fold. Moreover, in data set [5], the “fluorescence turn on with αS relative to tau” value turned out to be 2 fold. Besides, on αS fibrils [3], the “increase in QY with αS fibrils” value was determined as 218 fold. Besides, the “Relative Brightness” value at αS fibrils [3] and on αS fibrils [3] (setting [9]) was 476 in each case. The “increase in brightness in the presence of PFFs” value at αS fibrils [3] turned out to be 476 fold. Further, the “fractionation of αS fibrils with probe” value at αS fibrils [6] is given as “selectively binds to the fibrils”.
As for `Cc1c(C)n2c(/C=C/C=C/c3ccc(N(C)C)cc3)c(C)c(=O)n2c1=O` [Compound 7m, 3-((1E,3E)-4-(4-(dimethylamino)phenyl)buta-1,3-dien-1-yl)-2,5,6-trimethyl-1H,7H-pyrazolo[1,2-a]pyrazole-1,7-dione], the “Fluorescence QY” value in data set [1] is recorded as 0.6%; on αS fibrils [3] (absence of αS PFFs, 100 μM dye), 0.20%; on αS fibrils [3] (setting [8]) it was 27.9%. In data set [1], this compound registered a Fluorescence quantum yield of 13.5%. The QY in data set [1] is 14%. Also, on αS fibrils [4], the Kd was 420 ± 250 nM. In data set [5], the “fluorescence turn on with αS relative to tau” value stood at 9 fold. For the same compound, the “Relative Brightness” value on αS fibrils [3] worked out at 383. For the same compound, the “fractionation of αS fibrils with probe” value at αS fibrils [6] is recorded as “retained its fluorescence in the pellet fraction more than 2a”.
Take `Cc1c(C)n2c(/C=C/c3ccc(N4CCOCC4)cc3)c(C)c(=O)n2c1=O` [Compound 7k, (E)-2,3,6-trimethyl-5-(4-morpholinostyryl)-1H,7H-pyrazolo[1,2-a]pyrazole-1,7-dione]: in data set [1], the “Fluorescence QY” value is 1.0%, the Fluorescence quantum yield is reported as 6.9% and the QY result is “about 7%”. In addition, at αS fibrils [4], the Kd turned out to be 2450 ± 1240 nM. Besides, the “fluorescence turn on with αS monomer” value at αS monomer is “no significant fluorescence turn on signal”. Also, the “fluorescence turn on with αS relative to tau” value in data set [5] is 2 fold. Further, the “Fluorescence QY” value on αS fibrils [3] (absence of αS PFFs, 100 μM dye) was found to be 0.21%. In addition, the “Fluorescence QY” value at αS fibrils [3] (setting [8]) is on record as 29.2%. Also, the “Relative Brightness” value on αS fibrils [3] is on record as 403.
